Assays:
RORγ-LBD = target: T1, RORγ-LBD (Homo sapiens, UniProt P51449); experiment: RORγ-Ligand Binding Domain (LBD) TR-FRET Assay; type: biochemical;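 on TR-FRET Assay Max Response: 665/615 nm ratio relative to signal without ursolic acid or compound set at 100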
T1 construct: made in house; host or cells: SF9 cells (baculovirus)
T1 sequence (P51449 269-508 limits assumed): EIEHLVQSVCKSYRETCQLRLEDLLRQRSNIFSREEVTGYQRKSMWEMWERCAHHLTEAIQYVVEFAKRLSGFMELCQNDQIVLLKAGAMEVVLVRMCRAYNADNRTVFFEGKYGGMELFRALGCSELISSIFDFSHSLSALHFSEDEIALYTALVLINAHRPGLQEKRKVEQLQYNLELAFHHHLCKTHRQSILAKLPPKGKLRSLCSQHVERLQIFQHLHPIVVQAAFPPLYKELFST
Outline: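 This TR-FRET coactivator assay pairs baculovirus-expressed His-RORγ-LBD (~3 nM final) with biotin-SRC1 LXXLL peptide at 200 nM final in pH 7.0 Tris/KCl/EDTA/DTT/BSA buffer.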

Gal4-RORγ-LBD = target: T2, Gal4-RORγ-LBD (Homo sapiens, UniProt P51449); experiment: Gal4-RORγ Luciferase Reporter Assay in HEK-293T Cells; type: cell-based; conditions: HEK-293 cells
T2 construct: expressed in transfected cells; host or cells: HEK-293 cells (pcDNA3.1neo plasmid)
T2 sequence (P51449 269-508 limits assumed): T1 sequence (P51449 269-508 limits assumed)
Outline: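 Luminescence read-out (One-Glo, 10 min RT) after overnight compound exposure at 37 °C in HEK-293 cells carrying Gal4-RORγ-LBD plus a Gal4-luciferase reporter, in the presence of 2 μM ursolic acid. Max Response is the upper plateau from a 4-parameter logistic fit, normalized to untreated signal = 100.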

[1] = luciferase reporter, with 2 μM ursolic acid

SMILES	EC50 (RORγ-LBD)	EC50 (Gal4-RORγ-LBD; 2 μM ursolic acid)	EC50 (Gal4-RORγ-LBD; [1])	TR-FRET Assay Max Response (RORγ-LBD)	Gal4-RORγ Assay Max Response (Gal4-RORγ-LBD; 2 μM ursolic acid)	Gal4-RORγ Assay Max Response (Gal4-RORγ-LBD; [1])
CC(C)(O)C(=O)NC[C@H]1CN(S(=O)(=O)c2cccc(C(F)(F)F)c2)c2cc(-c3cc(F)ccc3F)ccc2O1 [Compound 17, (S)—N-((6-(2,5-difluorophenyl)-4-((3-(trifluoromethyl)phenyl)sulfonyl)-3,4-dihydro-2H-benzo[b][1,4]oxazin-2-yl)methyl)-2-hydroxy-2-methylpropanamide]	< 500 nM	< 500 nM		**** (The symbol “****” indicates a value greater than 200)	** (The symbol “**” indicates a value in the range of greater than 90 to 150)	
O=C(O)C1CC(=O)N(C[C@H]2CN(S(=O)(=O)c3cccc(C(F)(F)F)c3)c3cc(-c4cc(F)ccc4F)ccc3O2)C1 (stereo partly drawn) [Compound 18, 1-(((S)-6-(2,5-difluorophenyl)-4-((3-(trifluoromethyl)phenyl)sulfonyl)-3,4-dihydro-2H-benzo[b][1,4]oxazin-2-yl)methyl)-5-oxopyrrolidine-3-carboxylic acid]	< 500 nM	500 to 5000 nM		**** (The symbol “****” indicates a value greater than 200)	** (The symbol “**” indicates a value in the range of greater than 90 to 150)	
O=C(O)CCC[C@H]1CN(S(=O)(=O)c2cccc(C(F)(F)F)c2)c2cc(-c3cccc(F)c3F)ccc2O1 [Compound 21A, (S)-4-(6-(2,3-difluorophenyl)-4-((3-(trifluoromethyl)phenyl)-sulfonyl)-3,4-dihydro-2H-benzo[b][1,4]oxazin-2-yl)butanoic acid]	< 500 nM		< 500 nM	**** (The symbol “****” indicates a value greater than 200)		** (The symbol “**” indicates a value in the range of greater than 90 to 150)
COc1cccc(-c2ccc3c(c2)N(S(=O)(=O)c2cccc(C(F)(F)F)c2)C[C@H](CCCC(=O)O)O3)c1 [Compound 21B, (S)-4-(6-(3-methoxyphenyl)-4-((3-(trifluoromethyl)phenyl)sulfonyl)-3,4-dihydro-2H-benzo[b][1,4]-oxazin-2-yl)butanoic acid]	< 500 nM		< 500 nM	**** (The symbol “****” indicates a value greater than 200)		** (The symbol “**” indicates a value in the range of greater than 90 to 150)
O=C(O)CCC[C@H]1CN(S(=O)(=O)c2cccc(C(F)(F)F)c2)c2cc(-c3cccc(C(F)(F)F)n3)ccc2O1 [Compound 21C, (S)-4-(4-((3-(trifluoromethyl)-phenyl)sulfonyl)-6-(6-(trifluoromethyl)pyridin-2-yl)-3,4-dihydro-2H-benzo[b][1,4]oxazin-2-yl)butanoic acid]	< 500 nM		< 500 nM	**** (The symbol “****” indicates a value greater than 200)		*** (The symbol “***” indicates a value in the range of greater than 150 to 200)
O=C(O)CCC[C@H]1CN(S(=O)(=O)c2cccc(C(F)(F)F)c2)c2cc(-c3cc(F)cc(F)c3Cl)ccc2O1 [Compound 21D, (S)-4-(6-(2-chloro-3,5-difluorophenyl)-4-((3-(trifluoromethyl)phenyl)sulfonyl)-3,4-dihydro-2H-benzo[b][1,4]-oxazin-2-yl)butanoic acid]	< 500 nM		< 500 nM	*** (The symbol “***” indicates a value in the range of greater than 150 to 200)		*** (The symbol “***” indicates a value in the range of greater than 150 to 200)

Second part, led by results:

EC50 (RORγ-LBD)	EC50 (Gal4-RORγ-LBD; 2 μM ursolic acid)	EC50 (Gal4-RORγ-LBD; [1])	SMILES	TR-FRET Assay Max Response (RORγ-LBD)	Gal4-RORγ Assay Max Response (Gal4-RORγ-LBD; 2 μM ursolic acid)	Gal4-RORγ Assay Max Response (Gal4-RORγ-LBD; [1])
< 500 nM		< 500 nM	O=C(O)CC[C@H]1CN(S(=O)(=O)c2cccc(C(F)(F)F)c2)c2cc(-c3cccc(C(F)(F)F)n3)cc(F)c2O1 [Compound 22A, (S)-3-(8-fluoro-4-((3-(trifluoromethyl)phenyl)-sulfonyl)-6-(6-(trifluoromethyl)pyridin-2-yl)-3,4-dihydro-2H-benzo[b][1,4]oxazin-2-yl)propanoic acid]	**** (The symbol “****” indicates a value greater than 200)		** (The symbol “**” indicates a value in the range of greater than 90 to 150)
< 500 nM		< 500 nM	O=C(O)CC[C@H]1CN(S(=O)(=O)c2cccc(C(F)(F)F)c2)c2cc(-c3cccc(F)c3F)c(Cl)cc2O1 [Compound 22B, (S)-3-(7-chloro-6-(2,3-difluorophenyl)-4-((3-(trifluoromethyl)phenyl)sulfonyl)-3,4-dihydro-2H-benzo[b][1,4]-oxazin-2-yl)propanoic acid]	**** (The symbol “****” indicates a value greater than 200)		** (The symbol “**” indicates a value in the range of greater than 90 to 150)
< 500 nM		< 500 nM	COc1cccc(-c2cc3c(cc2Cl)O[C@@H](CCC(=O)O)CN3S(=O)(=O)c2cccc(C(F)(F)F)c2)c1 [Compound 22C, (S)-3-(7-chloro-6-(3-methoxyphenyl)-4-((3-(trifluoromethyl)phenyl)sulfonyl)-3,4-dihydro-2H-benzo[b][1,4]-oxazin-2-yl)propanoic acid]	**** (The symbol “****” indicates a value greater than 200)		** (The symbol “**” indicates a value in the range of greater than 90 to 150)
< 500 nM		< 500 nM	COc1cccc(-c2cc(F)c3c(c2)N(S(=O)(=O)c2cccc(C(F)(F)F)c2)C[C@H](CCC(=O)O)O3)c1 [Compound 22D, (S)-3-(8-fluoro-6-(3-methoxyphenyl)-4-((3-(trifluoromethyl)phenyl)sulfonyl)-3,4-dihydro-2H-benzo[b][1,4]-oxazin-2-yl)propanoic acid]	**** (The symbol “****” indicates a value greater than 200)		** (The symbol “**” indicates a value in the range of greater than 90 to 150)
< 500 nM		< 500 nM	O=C(O)CC[C@H]1CN(S(=O)(=O)c2cccc(C(F)(F)F)c2)c2cc(-c3cccc(F)c3F)cc(F)c2O1 [Compound 22E, (S)-3-(6-(2,3-difluorophenyl)-8-fluoro-4-((3-(trifluoromethyl)phenyl)sulfonyl)-3,4-dihydro-2H-benzo[b][1,4]-oxazin-2-yl)propanoic acid]	**** (The symbol “****” indicates a value greater than 200)		** (The symbol “**” indicates a value in the range of greater than 90 to 150)
< 500 nM		< 500 nM	O=C(O)CC[C@H]1CN(S(=O)(=O)c2cccc(C(F)(F)F)c2)c2cc(-c3cc(F)cc(F)c3Cl)c(Cl)cc2O1 [Compound 22G, (S)-3-(7-chloro-6-(2-chloro-3,5-difluorophenyl)-4-((3-(trifluoromethyl)phenyl)sulfonyl)-3,4-dihydro-2H-benzo[b][1,4]-oxazin-2-yl)propanoic acid]	*** (The symbol “***” indicates a value in the range of greater than 150 to 200)		** (The symbol “**” indicates a value in the range of greater than 90 to 150)
< 500 nM	< 500 nM		O=C(O)CC[C@H]1CN(S(=O)(=O)c2cccc(C(F)(F)F)c2)c2cc(-c3cc(F)cc(F)c3Cl)cc(F)c2O1 [Compound 22H, (S)-3-(6-(2-chloro-3,5-difluoro-phenyl)-8-fluoro-4-((3-(trifluoro-methyl)phenyl)sulfonyl)-3,4-dihydro-2H-benzo[b][1,4]oxazin-2-yl)propanoic acid]	*** (The symbol “***” indicates a value in the range of greater than 150 to 200)	** (The symbol “**” indicates a value in the range of greater than 90 to 150)	
< 500 nM	< 500 nM		O=C(O)CC[C@H]1CN(S(=O)(=O)c2cccc(C(F)(F)F)c2)c2cc(-c3cccc(Cl)c3F)cc(F)c2O1 [Compound 22I, (S)-3-(6-(3-chloro-2-fluoro-phenyl)-8-fluoro-4-((3-(trifluoromethyl)phenyl)sulfonyl)-3,4-dihydro-2H-benzo[b][1,4]-oxazin-2-yl)propanoic acid]	*** (The symbol “***” indicates a value in the range of greater than 150 to 200)	** (The symbol “**” indicates a value in the range of greater than 90 to 150)	
< 500 nM	< 500 nM		O=C(O)CC[C@H]1CN(S(=O)(=O)c2cccc(C(F)(F)F)c2)c2cc(-c3cccc(Cl)c3F)c(Cl)cc2O1 [Compound 22J, (S)-3-(7-chloro-6-(3-chloro-2-fluorophenyl)-4-((3-(trifluoro-methyl)phenyl)sulfonyl)-3,4-dihydro-2H-benzo[b][1,4]oxazin-2-yl)propanoic acid]	*** (The symbol “***” indicates a value in the range of greater than 150 to 200)	** (The symbol “**” indicates a value in the range of greater than 90 to 150)	

Source: patent US10611740B2, “Aryl dihydro-2H-benzo[b][1,4]oxazine sulfonamide and related compounds for use as agonists of RORγ and the treatment of disease” (Lycera Corporation, priority 2015, dated 2020)
